In patent publication US20040229207A1 (priority 1999, published 2004):

What follows are compounds tested on LAB-1 (assay: Antibiotic sensitivity testing of LAB-1). Details: not given.
Type: cell-based
Protocol: A variety of biochemical tests were performed in order to identify the species and the genus of organism. The tests included: assessment of growth conditions, culture appearance, cell appearance and staining characteristics, optimal temperature and pH growth range, oxygen requirements, antibiotic sensitivity testing, tests for catalase and oxidase (using TAXOS N™ disks), amino acid utilization as carbon source, nitrogen fixation, motility test, and a variety of commercially available tests from MICRO-ID™, OXYFERM™, ENTEROTUBE™ and BIOLOG GN MICROPLATE™.

Compound | Antibiotic Susceptibility
NCC[C@H](O)C(=O)N[C@@H]1C[C@H](N)[C@@H](O[C@H]2O[C@H](CN)[C@@H](O)[C@H](O)[C@H]2O)[C@H](O)[C@H]1O[C@H]1O[C@H](CO)[C@@H](O)[C@H](N)[C@H]1O [Amikacin] | sensitive
CC1(C)S[C@@H]2[C@H](NC(=O)[C@H](N)c3ccccc3)C(=O)N2[C@H]1C(=O)O [Ampicillin] | resistant
CC[C@H]1OC(=O)[C@H](C)[C@@H](O[C@H]2C[C@@](C)(OC)[C@@H](O)[C@H](C)O2)[C@H](C)[C@@H](O[C@@H]2O[C@H](C)C[C@H](N(C)C)[C@H]2O)[C@](C)(O)C[C@@H](C)C(=O)[C@H](C)[C@@H](O)[C@]1(C)O [Erythromycin] | resistant
CO[C@@H]1[C@@H](OC(N)=O)[C@@H](O)[C@H](Oc2ccc3c(O)c(NC(=O)c4ccc(O)c(CC=C(C)C)c4)c(=O)oc3c2C)OC1(C)C [Novobiocin] | sensitive
[H]/N=C(/N)N[C@H]1[C@H](O)[C@@H](O)[C@H](O[C@@H]2O[C@@H](C)[C@](O)(C=O)[C@H]2O[C@@H]2O[C@@H](CO)[C@H](O)[C@@H](O)[C@@H]2NC)[C@@H](N/C(N)=N\[H])[C@@H]1O [Streptomycin] | resistant
Neomycin | sensitive
Penicillin | resistant
Polymyxin B | sensitive

What follows are compounds tested on LAB-1 strain (assay: Inhibition of LAB-1 growth, cell attachment and biofilm production in growth media). Details: 0.1-1.0% (w/v) in liquid or solid growth media.
Type: cell-based
Excerpt: It would be apparent to one of ordinary skill in the art to apply the above methods to inhibit the production of mucoid compounds and biofilm in any mucoid organism.

Compound | growth, development, cell attachment and biofilm production of LAB-1
CC(C)Cc1ccc(C(C)C(=O)O)cc1 (stereo not shown) [ibuprofen, 2-(4-isobutylphenyl)-propionic acid] | differentially inhibits
CCC(=O)O [propionic acid] | differentially inhibits
